Common to all, as to format: physicochemical
Series [1] in a line: Stability of AN-197 under acidic conditions (citric acid solution). The conditions noted are these: in ethyl acetate, stirred in citric acid solution overnight. The method, then:
To evaluate the stability of AN-197 under acidic conditions, a sample of AN-197, prepared according to the procedure described in Example 4 (Route B) above, was dissolved in ethyl acetate and stirred in a citric acid solution overnight.

Series [2] is described as follows: Stability of AN-197 by daily HPLC over 24 days, mobile phase solution vs neat oil. The conditions noted are these: 20° C. The method, then: HPLC analyses were performed on a Water 2695 Separations Module, using a Luna C18 (2) 50 mm×4.6 mm×3 um column, a 5 μl injection volume and a 2487 dual wavelength detector under the following instrumental conditions: Mobile phase A: 0.1% formic acid; Mobile phase B: acetonitrile; Flow rate: 0.5 ml per minute; Mobile phase gradient: 0.0 minutes 90% A, 10% B, 14.0 minutes 20% A, 80% B, 15.0 minutes 90% A, 10% B and 20.0 minutes 90% A, 10% B; Run time: 20 minutes; Detection: UV at 254 nm; Column temperature: 40° C.
The stability of AN-197 was determined by performing an HPLC analysis daily during a period of 24 days and determining the appearance of perphenazine and GABA, the degradation products of AN-197. A sample of AN-197, prepared according to the procedure described above in Example 4 (Route B), was dissolved in the mobile phase solution used in the HPLC analysis (2:1 acetonitrile:water, pH=8) and was kept at 20° C. For comparison, a sample of neat AN-197 was kept under the same conditions and was similarly analyzed.

Series [3] can be described thus: Stability of AN-197 in dichloromethane, acetonitrile or ethyl acetate heated to 40° C. overnight. The conditions noted are these: dissolved in dichloromethane. The method, then: To evaluate the stability of AN-197 under conditions of a large scale production, characterized by longer procedure times, samples of AN-197, prepared according to the procedure described in Example 4 above (Route B) above, dissolved in dichloromethane, acetonitrile or ethyl acetate were heated to 40° C. overnight. […] It was therefore concluded that AN-197 is stable under such conditions.

Molecules are shown by their SMILES.

Take `CC(C)(C)OC(=O)NCCCC(=O)OCCN1CCN(CCCN2c3ccccc3Sc3ccc(Cl)cc32)CC1` [AN-197, Perphenazine N-Boc-4-aminobutyrate]: the “hydrolysis of the product” value in series [1] is “no hydrolysis”. Moreover, the “perphenazine content (HPLC)” value in series [2] (AN-197 solution in HPLC mobile phase (2:1 acetonitrile:water, pH=8), after 24 days) amounted to 7.98%; in series [2] (AN-197 solution in HPLC mobile phase (2:1 acetonitrile:water, pH=8), initial), 0.42%; in series [2] (neat oil, after 24 days), 0.79%; in series [2] (neat oil, initial) it was 0.42%. Besides, the degradation entry in series [3] was “no degradation had occurred”.

These data come from patent publication US20090298814A1, “Novel salts of conjugated psychotropic drugs and processes of preparing same” (RAMOT AT TEL AVIV UNIVERISTY LTD, priority 2005, published 2009).
